Results published in patent US9481669B2, “Pladienolide pyridine compounds and methods of use” (Eisai R&D Management Co., Ltd., priority 2014, dated 2016).
pIC50: −log10 of the molar value.

Columns and labels:
[1] = tested on: Pre-EIF4A1 and SLC25A19 expression in Nalm-6 SF3B1^K700E xenograft tumors; assay: PK/PD testing in Nalm-6 mouse xenograft model; format: in vivo, CB17-SCID mice; conditions: single oral dose
Experimental: Pharmacokinetics (PK)/pharmacodynamics (PD) of Compound 2 were also analyzed in the Nalm-6 mouse xenograft model. Nalm-6 SF3B1^K700E isogenic cells (human pre B-cell line, 10×10^6 cells) were subcutaneously implanted into the flank of female CB17-SCID mice. Mice were administered a single oral dose of 10 mg/kg Compound 2 (10% ethanol, 5% TWEEN-80, 85% saline), and the tumors were collected at the indicated times post administration for analysis.
RNA was isolated using RiboPure™ RNA purification kit (Ambion®) and used for qPCR analysis. The RNA was retrotranscribed according to the instructions of the SuperScript® VILO™ cDNA synthesis kit (Invitrogen™), and 0.04 μl of cDNA was used for quantitative PCR (qPCR). qPCR for pre-mRNA EIF4A1 and mature mRNA […] and PK evaluation were performed as reported previously (Eskens, F. A. et al. Phase I pharmacokinetic and pharmacodynamic study of the first-in-class spliceosome inhibitor E7107 in patients with advanced solid tumors. Clin Cancer Res. 19, 6296-6304, doi:10.1158/1078-0432.CCR-13-0485 (2013)). All animal studies were carried out according to the H3 Biomedicine Guide for the Care and Use of Laboratory Animals.
Pharmacokinetics (PK)/pharmacodynamics (PD) of Compound 1 were also analyzed in the Nalm-6 mouse xenograft model. […]

[2] = tested on: splicing of Ad2 pre-mRNA in HeLa nuclear extract; assay: In vitro splicing (IVS) biochemical assay; conditions: 30° C.
Experimental: Biotin-labeled pre-mRNA of an adenovirus type 2 construct with a deletion of intervening sequence (Ad2) (Berg, M. G., et al. 2012 Mol. Cell Bio., 32(7):1271-83) was prepared by in vitro transcription. The Ad2 construct containing Exon 1 (41 nucleotides), Intron (231 nucleotides), and Exon 2 (72 nucleotides) was generated by gene synthesis and cloned into the EcoRI and XbaI sites of pGEM®-3Z vector (Promega) by Genewiz® (South Plainfield, N.J.). The plasmid was then linearized by XbaI digestion and purified. In vitro transcription and purification of transcribed pre-mRNA were performed using the MEGAscript® T7 transcription kit (Invitrogen™, Life Technologies™, Grand Island, N.Y.) and MEGAclear™ transcription clean-up kit (Invitrogen™, Life Technologies™, Grand Island, N.Y.), respectively, following the manufacturer's instructions. The ratio of biotin-16-UTP (Roche Diagnostics Corporation, Indianapolis, Ind.) to cold UTP was 1:13 to incorporate approximately two biotin molecules per spliced Ad2 mRNA.
In vitro splicing assay was performed at 30° C. in 25 μL reaction mixtures containing 95 μg HeLa nuclear extract (Promega Corporation, Madison, Wis.), 47 nM Ad2 pre-mRNA, 25 U RNasin RNase inhibitor (Promega Corporation, Madison, Wis.), 1×SP buffer (0.5 mM ATP, 20 mM creatine phosphate, 1.6 mM MgCl2), and compounds in DMSO (with 1% final concentration of DMSO). After […] of incubation, the reaction was stopped by addition of 18 μL of 5M NaCl, and the mixtures were incubated with 10 μL of M-280 streptavidin-coated magnetic beads (Invitrogen™, Life Technologies™, Grand Island, N.Y.) for 30 min at room temperature to capture Ad2 pre- and spliced mRNA. The beads were washed twice with 100 uL buffer containing 10 mM Tris pH=7.5, 1 mM EDTA and 2M NaCl, and then incubated in RNA gel loading buffer containing 95% formamide at 70° C. for 10 min to elute the RNAs. Ad2 RNAs were resolved by 6% TBE-UREA gel, transferred to a nylon membrane, UV cross-linked, and probed with an IRDye® labeled streptavidin (LI-COR, Lincoln, Nebr.). The amount of spliced RNA was quantified by measuring the band fluorescent intensity using LI-COR Image Studio software.
The in vitro splicing (IVS) assay described above is a biochemical assay that monitors inhibition of the splicing of an exemplary pre-mRNA into an mRNA.

[3] = tested on: Panc 05.04 cells (mt SF3B1; Q699H and K700E mutations in SF3B1); assay: Cell viability assay (CellTiter-Glo, 72 hr), Panc 05.04; format: cell-based; conditions: for GI50 / Emax: Panc 05.04, 72 hr; for Emax: negative value indicates cellular lethality
Experimental: Cells (WiDr and Panc05.04 obtained from ATCC) were seeded in 96-well plates, with 2000 cells/100 μL/well, and incubated overnight. Spent media was removed, and fresh media containing 9 different concentrations of compound (100 μL/well) were added, with DMSO concentration from compound stock solution adjusted to be 0.1%. Each compound treatment was done in duplicate or triplicate at each concentration.
Another plate with cells seeded was dedicated as a time zero (Tz) plate, to which was added 0.1% DMSO in media (100 μL/well) followed by CellTiter-Glo® reagent (Promega Corporation, Madison, Wis.) (50 μL/well) for ATP measurement as a surrogate of cell viability. Average value from measurement of multiple wells of this plate is used as Tz.
Compound-treated plates were incubated for 72 hr at 37° C. Then, CellTiter-Glo® reagent (50 μL/well) was added and ATP was measured. Average value from measurement of the duplicate or triplicate compound-treated wells is used as Ti, and seeded plates with medium having 0.1% DMSO without compound is used as control growth (C).
Percentage growth inhibition/Percentage viability was calculated as: [(Ti−Tz)/(C−Tz)]×100 for concentrations for which Ti>/=Tz [(Ti−Tz)/Tz]×100 for concentrations for which Ti<Tz. *time zero (Tz), control growth (C), and test growth in the presence of compound (Ti) Percentage growth inhibition/Percentage viability are plotted versus compound concentration to determine Emax.
Growth inhibition of 50% (GI50) was calculated from [(Ti−Tz)/(C−Tz)]×100=50, which is the drug concentration resulting in a 50% reduction in the net increase of ATP in control growth (C) during the compound treatment.
Emax refers to the maximum achievable response to a compound in a tested dose range, with a negative value indicating cellular lethality. A larger negative Emax value indicates greater cellular lethality for a particular compound.

Structure (SMILES) | PD responses (fold change in Pre-EIF4A1 and SLC25A19 expression in tumor) [1] | pIC50 [2] | GI50 [3] | Emax [3] | cellular lethality (Emax comparison) ([3]; Panc 05.04 cells)
C/C(=C\C=C\[C@@H](C)c1ccccn1)[C@H]1OC(=O)C[C@H](O)CC[C@@](C)(O)[C@@H](OC(=O)N2CCN(C3CCCCCC3)CC2)/C=C/[C@@H]1C [Compound 1, (2S,3S,6S,7R,10R,E)-7,10-dihydroxy-3,7-dimethyl-12-oxo-2-((R,2E,4E)-6-(pyridin-2-yl)hepta-2,4-dien-2-yl)oxacyclododec-4-en-6-yl 4-cycloheptylpiperazine-1-carboxylate] | showed PD responses at a tolerated dose | 6.73 | 19.5 nM | -86.8% | greater cellular lethality than Compound 2
C/C(=C\C=C\[C@@H](C)c1ccccn1)[C@H]1OC(=O)C[C@H](O)CC[C@@](C)(O)[C@@H](OC(=O)N2CCN(C)CC2)/C=C/[C@@H]1C [Compound 2, (2S,3 S,6S,7R,10R,E)-7,10-dihydroxy-3,7-dimethyl-12-oxo-2-((R,2E,4E)-6-(pyridin-2-yl)hepta-2,4-dien-2-yl)oxacyclododec-4-en-6-yl 4-methylpiperazine-1-carboxylate] | showed PD responses at a tolerated dose | 5.88 | 32.7 nM | -66.1% | 
C/C(=C\C=C\[C@@H](C)c1ccccn1)[C@H]1OC(=O)C[C@H](O)CC[C@@](C)(O)[C@@H](OC(=O)N2CCC(N3CCCCCC3)CC2)/C=C/[C@@H]1C [Compound 3, (2S,3S,6S,7R,10R,E)-7,10-dihydroxy-3,7-dimethyl-12-oxo-2-((R,2E,4E)-6-(pyridin-2-yl)hepta-2,4-dien-2-yl)oxacyclododec-4-en-6-yl 4-(azepan-1-yl)piperidine-1-carboxylate] |  | 6.11 | 20.8 nM | -90.8% | 
C/C(=C\C=C\[C@@H](C)c1ccccn1)[C@H]1OC(=O)C[C@H](O)CC[C@@](C)(O)[C@@H](OC(=O)N2CCC(N3CCCCC3)CC2)/C=C/[C@@H]1C [Compound 4, (2S,3 S,6S,7R,10R,E)-7,10-dihydroxy-3,7-dimethyl-12-oxo-2-((R,2E,4E)-6-(pyridin-2-yl)hepta-2,4-dien-2-yl)oxacyclododec-4-en-6-yl[1,4′-bipiperidine]-1′-carboxylate] |  | 7.05 | 11.8 nM | -86.2% | 
